Experiments:
[1] = Antivascular activity against human EAhy926 cells assessed as rounding up morphology after 2 hrs by microscopic analysis; type: functional; details: EA.hy 926, 2 h, read-out: MEC
[2] = tested on: B16; experiment: Cytotoxicity against mouse B16 cells after 48 hrs by MTT assay; type: functional, cell-based; details: B16, 48 h
[3] = biological target: Tubulin; experiment: Inhibition of tubulin (unknown origin) assessed as inhibition of GTP-induced polymerization incubated for 45 mins prior to GTP-addition measured after 2 hrs by DAPI-staining based fluorimetric analysis; type: protein-complex assay, Homo sapiens

Question: With `COc1ccc([C@H]2C[C@H]2c2cc(OC)c(OC)c(OC)c2)cc1O` as the molecule, how does the minimal effective concentration [1] read?
Answer: 0.5 µM

Question: And the IC50 [2]?
Answer: 520 nM

Question: What about the IC50 [3] of the same molecule?
Answer: 6800 nM

Question: For `COc1cc([C@@H]2C[C@@H]2/C=C/c2ccccc2)cc(OC)c1OC`, which minimal effective concentration [1] is on record?
Answer: 0.5 µM

Question: What about the IC50 [2] of the same molecule?
Answer: 570 nM

Question: And the IC50 [3]?
Answer: 1300 nM

Question: Which results are given for `COc1cc([C@H]2C[C@H]2/C=C/c2ccccc2)cc(OC)c1OC`?
Answer: minimal effective concentration [1]: 3.13 µM; IC50 [2]: 2740 nM; IC50 [3]: 4500 nM

Question: Which minimal effective concentration [1] does the source give for `COc1ccc([C@@H]2C[C@@H]2c2cc(OC)c(OC)c(OC)c2)cc1O` here?
Answer: 0.12 µM

Question: What about the IC50 [2] of the same molecule?
Answer: 300 nM

Question: And the IC50 [3]?
Answer: 300 nM

Question: Which minimal effective concentration [1] does the source give for `COc1ccc(C2CC2c2cc(OC)c(OC)c(OC)c2)cc1O` (racemic) here?
Answer: 0.12 µM

Question: And the IC50 [2]?
Answer: 320 nM

Question: What about the IC50 [3] of the same molecule?
Answer: 1000 nM

Question: Which minimal effective concentration [1] does the source give for `COc1ccc(C2CC2c2cc(OC)c(OC)c(OC)c2)cc1[N+](=O)[O-]` (racemic) here?
Answer: 3.13 µM

Question: And the IC50 [2]?
Answer: 15400 nM

Question: And the IC50 [3]?
Answer: 26300 nM

Question: With `COc1cc(C2CC2/C=C/c2ccccc2)cc(OC)c1OC` (racemic) as the molecule, how does the minimal effective concentration [1] read?
Answer: 0.5 µM

Question: And the IC50 [2]?
Answer: 620 nM

Question: And the IC50 [3]?
Answer: 1800 nM

Question: What does the source list for `COc1ccc(C2CC2c2cc(OC)c(OC)c(OC)c2)cc1N` (racemic)?
Answer: minimal effective concentration [1]: 0.12 µM; IC50 [2]: 290 nM; IC50 [3]: 2800 nM

Question: Which results are given for `COc1ccc(/C=C\c2cc(OC)c(OC)c(OC)c2)cc1O` [COMBRETASTATIN A4]?
Answer: minimal effective concentration [1]: 0.006 µM; IC50 [2]: 3 nM
